Values of other authors, collected in patent US4380638A, “Chemical compounds” (Bristol-Myers Company, priority 1981, dated 1983).

Columns and labels:
[1] = system: H2 -receptor
[2] = agranulocytosis
[3] = system: peptic ulcer disease; conditions: Gray et al., Lancet, 1, 8001 (1977)
[4] = system: H2 -receptor; conditions: man

oral absorption | Compound | H2-antagonist potency/effectiveness relative to another drug [1] | toxicity [2] | clinical effectiveness in peptic ulcer disease [3] | oral activity [4]
poor | CNC(=S)NCCCCc1cnc[nH]1 [Burimamide] |  |  |  | 
 | CNC(=NC#N)NCCSCc1[nH]cnc1C [Cimetidine] | as effective an H2 -antagonist as metiamide | without producing agranulocytosis | effective therapeutic agent in the treatment of peptic ulcer disease | 
 | CNC(=S)NCCSCc1[nH]cnc1C [Metiamide] | more potent than burimamide | agranulocytosis |  | orally active in man
